According to the supplement of paper PMC13380429:

Assays:
[1] = test system: A549-ACE2 infected with SARS-CoV-2; assay: morphology score (similarity to uninfected cells); higher = more like uninfected cells; conditions: 24 h
[2] = test system: A549-ACE2 infected with SARS-CoV-2; assay: cell count relative to DMSO; higher = less toxic; conditions: 24 h
A549-ACE2 = assay: drug-induced phospholipidosis relative to tamoxifen; higher = more phospholipidosis
[3] = test system: A549-ACE2 infected with SARS-CoV-2; assay: SARS-CoV-2 infection rate relative to DMSO; higher = more infection; conditions: 24 h
Calu-3 [4] = assay: drug sensitivity score (DSS) for viability; higher = more toxic; extreme values may be limits of the assay; conditions: 72 h
HepG2 [5] = assay: as above; conditions: 72 h
Vero E6 [6] = assay: as above; conditions: 72 h
U2OS [7] = assay: as above; conditions: 72 h
Caco-2 [8] = assay: as above; conditions: 72 h
Calu-3 [9] = assay: relative viability EC50 (midpoint between 100% and the lowest measured viability); higher = less toxic; conditions: 72 h
HepG2 [10] = assay: as above; conditions: 72 h
Calu-3 [11] = assay: cell viability relative to DMSO; higher = less toxic; conditions: 72 h
HepG2 [12] = assay: as above; conditions: 72 h
Vero E6 [13] = assay: as above; conditions: 72 h
U2OS [14] = assay: as above; conditions: 72 h
Caco-2 [15] = assay: as above; conditions: 72 h
Caco-2 [16] = assay: relative viability EC50 (midpoint between 100% and the lowest measured viability); higher = less toxic; conditions: 72 h
U2OS [17] = assay: as above; conditions: 72 h
Vero E6 [18] = assay: as above; conditions: 72 h

Cn1nc(C(C)(C)C)cc1C(=O)N[C@@H](Cc1cccc(Cl)c1)C(=O)NCC#N [Cathepsin Inhibitor 1]
Conditions	SARS-CoV-2 infection rate, [3] [%]	cell count, [2] [%]	morphology score, [1]
0.3 µM	56	117	0.72
3 µM	33	125	0.85
10 µM	20	121	0.91
30 µM	17	121	0.91

drug-induced phospholipidosis [%], A549-ACE2
Conditions	0.3 µM	0.833333 µM	3.33333 µM	6.66667 µM	10 µM	30 µM
24 h	6.59	1.92	9.11	12.3	12.3	38.3
48 h	3.88	2.55	8.4	13.7	15.4	38.9
72 h	7.75	3.09	6.53	12.2	10.8	42

COc1cc(N2CCN(C)CC2)ccc1Nc1nccc(-c2cn(C)c3cnccc23)n1 [AZ191]
Conditions	SARS-CoV-2 infection rate, [3] [%]	cell count, [2] [%]	cell viability, Caco-2 [15] [%]	cell viability, Calu-3 [11] [%]	cell viability, HepG2 [12] [%]	cell viability, U2OS [14] [%]	cell viability, Vero E6 [13] [%]	morphology score, [1]
1 nM	–	–	96.7	96.4	97.3	97.9	93.6	–
10 nM	–	–	94.4	93.6	93.8	104	101	–
0.1 µM	95	106	–	–	–	–	–	0.14
100 nM	–	–	96.6	93.3	98.4	99.6	98.5	–
0.3 µM	103	102	–	–	–	–	–	0.19
1 µM	95	116	–	–	–	–	–	0.38
1000 nM	–	–	98.5	101	87.1	103	95	–
3 µM	53	120	–	–	–	–	–	0.74
10000 nM	–	–	64.4	102	22.3	64.5	62.6	–

drug-induced phospholipidosis [%], A549-ACE2
Conditions	0.3 µM	0.833333 µM	3.33333 µM	6.66667 µM	10 µM
24 h	1.95	-3.91	0.16	32.4	35.2
48 h	-0.41	-2.25	-2.09	41.3	–
72 h	3.05	-1.34	-1.23	–	–

Conditions	drug sensitivity score	relative viability EC50 [µM]
Caco-2 [8]	1.9	–
Calu-3 [4]	0	–
Calu-3 [9]	–	> 10
HepG2 [5]	6.4	–
HepG2 [10]	–	1.9
U2OS [7]	1.5	–
Vero E6 [6]	2.6	–

S=C(S)N1CCCC1 [pyrrolidine-dithiocarbamate]
Conditions	SARS-CoV-2 infection rate, [3] [%]	cell count, [2] [%]	cell viability, Caco-2 [15] [%]	cell viability, Calu-3 [11] [%]	cell viability, HepG2 [12] [%]	cell viability, U2OS [14] [%]	cell viability, Vero E6 [13] [%]	morphology score, [1]
1 nM	–	–	101	93.7	95.5	101	102	–
10 nM	–	–	101	94.2	93.4	99.3	106	–
0.1 µM	108	101	–	–	–	–	–	-0.05
100 nM	–	–	90.2	102	96	102	101	–
0.3 µM	93	105	–	–	–	–	–	0.28
1 µM	85	103	–	–	–	–	–	0.32
1000 nM	–	–	30.4	99.8	106	95.4	103	–
3 µM	83	104	–	–	–	–	–	0.39
10000 nM	–	–	15.7	41.7	13.1	58.4	63	–

drug-induced phospholipidosis [%], A549-ACE2
Conditions	0.3 µM	0.833333 µM	6.66667 µM	10 µM	30 µM
24 h	1.65	-0.57	5.92	3.64	-1.59
48 h	1.79	0.61	–	–	–
72 h	3.8	0.446	–	–	–

Conditions	drug sensitivity score	relative viability EC50 [µM]
Caco-2 [8]	14.2	–
Caco-2 [16]	–	0.368
Calu-3 [4]	3.2	–
Calu-3 [9]	–	3.14
HepG2 [5]	4.4	–
HepG2 [10]	–	3.53
U2OS [7]	2.8	–
Vero E6 [6]	1.6	–

CCN1CCN(c2ccc(Nc3cc(N(C)C(=O)Nc4c(Cl)c(OC)cc(OC)c4Cl)ncn3)cc2)CC1 [NVP-BGJ398]
Conditions	SARS-CoV-2 infection rate, [3] [%]	cell count, [2] [%]	cell viability, Caco-2 [15] [%]	cell viability, Calu-3 [11] [%]	cell viability, HepG2 [12] [%]	cell viability, U2OS [14] [%]	cell viability, Vero E6 [13] [%]	morphology score, [1]
1 nM	–	–	109	116	111	104	91.7	–
10 nM	–	–	102	102	100	95.1	101	–
0.1 µM	99	91	–	–	–	–	–	0.05
100 nM	–	–	103	106	110	98.1	90.5	–
0.3 µM	100	91	–	–	–	–	–	-0.02
1 µM	110	98	–	–	–	–	–	0.02
1000 nM	–	–	95.4	99.4	106	89.5	90.8	–
3 µM	97	93	–	–	–	–	–	0.2
10000 nM	–	–	76.1	89.8	68	90.5	66.2	–

drug-induced phospholipidosis [%], A549-ACE2
Conditions	0.3 µM	0.833333 µM	3.33333 µM	6.66667 µM	10 µM	30 µM
24 h	7.01	-3.2	0.41	0.28	8.33	40.8
48 h	5.03	-4.72	-2.05	0.17	2.69	25.9
72 h	3.12	-9.17	-6.95	-2.87	-1.22	27.1

Conditions	drug sensitivity score	relative viability EC50 [µM]
Caco-2 [8]	1.5	–
Caco-2 [16]	–	> 10
Calu-3 [4]	0	–
Calu-3 [9]	–	> 10
HepG2 [5]	1.1	–
U2OS [7]	0.1	–
U2OS [17]	–	> 10
Vero E6 [6]	2.4	–

CCC(=O)NS(=O)(=O)c1ccc(-c2c(-c3ccccc3)noc2C)cc1 [parecoxib]
Conditions	drug sensitivity score	relative viability EC50 [µM]
Caco-2 [8]	0	–
Caco-2 [16]	–	> 10
Calu-3 [4]	0	–
Calu-3 [9]	–	> 10
HepG2 [5]	0	–
HepG2 [10]	–	> 10
U2OS [7]	0	–
U2OS [17]	–	> 10
Vero E6 [6]	0	–
Vero E6 [18]	–	> 10

cell viability [%]
Conditions	Caco-2 [15]	Calu-3 [11]	HepG2 [12]	U2OS [14]	Vero E6 [13]
1 nM	99.5	106	88.9	103	97.7
10 nM	96	94.3	90	113	101
100 nM	96.6	94.4	94	103	95.6
1000 nM	98.9	92.5	94.2	94.1	95.6
10000 nM	95.7	108	90.1	99.2	93.6

CC(c1cc2ccccc2s1)N(O)C(N)=O (stereo not drawn) [zileuton]
Conditions	drug sensitivity score	relative viability EC50 [µM]
Caco-2 [8]	0	–
Caco-2 [16]	–	> 10
Calu-3 [4]	0	–
Calu-3 [9]	–	> 10
HepG2 [5]	0	–
HepG2 [10]	–	> 10
U2OS [7]	0	–
U2OS [17]	–	> 10
Vero E6 [6]	0	–
Vero E6 [18]	–	> 10

cell viability [%]
Conditions	Caco-2 [15]	Calu-3 [11]	HepG2 [12]	U2OS [14]	Vero E6 [13]
1 nM	93.7	89.5	109	97.1	103
10 nM	96.3	90.6	95.1	98.7	105
100 nM	93.3	102	101	96.9	107
1000 nM	100	96.1	94.2	102	101
10000 nM	91	94.6	102	96.4	99.7

C[C@]12CCC(=O)C=C1C=C[C@@H]1[C@@H]2CC[C@@]2(C)[C@H]1CC[C@@]2(O)CCC(=O)O [potassium-canrenoate]
Conditions	drug sensitivity score	relative viability EC50 [µM]
Caco-2 [8]	0	–
Caco-2 [16]	–	> 10
Calu-3 [4]	0	–
Calu-3 [9]	–	> 10
HepG2 [5]	0	–
HepG2 [10]	–	> 10
U2OS [7]	0	–
U2OS [17]	–	> 10
Vero E6 [6]	0	–
Vero E6 [18]	–	> 10

cell viability [%]
Conditions	Caco-2 [15]	Calu-3 [11]	HepG2 [12]	U2OS [14]	Vero E6 [13]
1 nM	93.8	102	106	97.1	102
10 nM	112	94.7	89.4	104	91.6
100 nM	77.3	107	85.4	98.9	102
1000 nM	88.9	101	87.9	100	88
10000 nM	105	104	99	98.9	100

COc1cccc(NC(=O)/C=C/c2ccc(Cl)cc2)c1
Conditions	drug sensitivity score	relative viability EC50 [µM]
Caco-2 [8]	1.4	–
Caco-2 [16]	–	> 10
Calu-3 [4]	0.1	–
Calu-3 [9]	–	> 10
HepG2 [5]	0	–
HepG2 [10]	–	> 10
U2OS [7]	0	–
U2OS [17]	–	> 10
Vero E6 [6]	0	–
Vero E6 [18]	–	> 10

cell viability [%]
Conditions	Caco-2 [15]	Calu-3 [11]	HepG2 [12]	U2OS [14]	Vero E6 [13]
1 nM	98.2	104	102	93	102
10 nM	100	99.4	103	100	96.4
100 nM	98.5	93.3	99.8	96.3	97.2
1000 nM	88.3	108	98.3	97.9	95
10000 nM	81	84.2	105	92.8	107

C[C@@H]1CC[C@H]2[C@@H](C)C(=O)O[C@@H]3O[C@@]4(C)CC[C@@H]1[C@]32OO4 [artemisinin]
Conditions	drug sensitivity score	relative viability EC50 [µM]
Caco-2 [8]	1.3	–
Caco-2 [16]	–	> 10
Calu-3 [4]	0	–
Calu-3 [9]	–	> 10
HepG2 [5]	2.5	–
HepG2 [10]	–	> 10
U2OS [7]	1.1	–
U2OS [17]	–	> 10
Vero E6 [6]	0	–
Vero E6 [18]	–	> 10

cell viability [%]
Conditions	Caco-2 [15]	Calu-3 [11]	HepG2 [12]	U2OS [14]	Vero E6 [13]
1 nM	95.6	101	97.3	96.9	97.5
10 nM	104	102	93.1	99.8	95.4
100 nM	102	99.5	88.7	94.6	98
1000 nM	91.4	95.4	86.1	91.1	96.9
10000 nM	81.6	97.5	77.1	78.6	100

CCOC(=O)[C@H](CCc1ccccc1)N[C@@H](C)C(=O)N1[C@H](C(=O)O)C[C@H]2CCCC[C@@H]21 [trandolapril]
Conditions	drug sensitivity score	relative viability EC50 [µM]
Caco-2 [8]	0.4	–
Caco-2 [16]	–	> 10
Calu-3 [4]	0	–
Calu-3 [9]	–	> 10
HepG2 [5]	0	–
HepG2 [10]	–	> 10
U2OS [7]	0	–
U2OS [17]	–	> 10
Vero E6 [6]	0	–
Vero E6 [18]	–	> 10

cell viability [%]
Conditions	Caco-2 [15]	Calu-3 [11]	HepG2 [12]	U2OS [14]	Vero E6 [13]
1 nM	93.1	106	90.7	97.6	91.6
10 nM	86	98	104	92.6	97.3
100 nM	83.2	102	96.4	98.5	89.6
1000 nM	89.6	108	100	96	96.1
10000 nM	100	102	108	99.4	107
